Reference: patent US7067667B2, “Aminoalkyl-3, 4-dihydroquinoline derivatives as no-synthase inhibitors” (Schering Aktiengesellschaft, priority 1998, dated 2006)
Where a name gives a salt, the structure may show the parent alone.

Target: bNOS (UniProt P29475)
Experiment: bNOS inhibition (method of Bredt and Snyder)
Assay type: biochemical
From the text: The NOS-inhibitory action of the compounds of Formula (I) and their physiologically compatible salts can be determined according to the methods by Bredt and Snyder in Proc. Natl. Acad. Sci. USA (1989) 86, 9030–9033.

In the case of `NC1=Nc2cc(CCNCc3cccc(Cl)c3)c(Cl)cc2C2CCCC12` (stereo not shown) [Example 8, 4-Amino-8-chloro-7-(3-chlorobenzylamino)ethyl-2,3,3a,9b-tetrahydro-1H-cyclopenta[c]quinoline Dihydrochloride], the IC50 is reported as 190 nM.
